Measured values as given in patent publication US5206148A, “Method for assaying aliphatic alcohol, aliphatic aldehyde or ω-carboxylic acid derivatives thereof” (Asahi Kasei Kogyo Kabushiki Kaisha, priority 1991, dated 1993).
One block for each molecule: values may come before it.

Columns and labels:
Type in all cases: biochemical, Streptomyces sp. AC 8205
ω-carboxyalcohol oxidase [1] = test: Effects of reagents (detergents and metal ions) on enzyme activity; conditions: None = 100
Protocol: (§1) An enzyme solution (25 μl) was added to the above mixture (0.5 ml), followed by incubation at 37° C. for exactly 10 mins., whereupon sodium dodecyl sulfate (SDS) (0.5 ml) was added thereto, then absorbance at 545 nm was measured. One unit of enzyme is defined by the activity which generates 1 μmole of hydrogen peroxide per minute.
The effects of various detergent and metal ions are shown in Table 4, in which the listed reagents show no significant effect on the enzyme. Activities of the enzyme are measured by adding each listed detergent and metal ion to the assay method described above at item 1.

ω-carboxyalcohol oxidase [2] = test: Substrate specificity of ω-carboxyalcohol oxidase (peroxidase/4-aminoantipyrine H2O2 assay); design: Relative Activity (%): concentration or dose not given beside the values; conditions: for Relative Activity (%): substrate in place of 12-hydroxydodecanoic acid, activity on 12-hydroxydodecanoic acid defined as 100, pH 7.5, 37° C., 10 mins.; for Substrate specificity: statement in words, from Table 2
Protocol: as §1
Assay method: In the assay method illustrated at item 1. hereinabove, 12-hydroxydodecanoic acid was replaced by the substrates indicated in Table 2, and the resulting relative activities were produced, defining the activity on 12-hydroxydodecanoic acid as 100.

ω-carboxyalcohol oxidase [3] = test: Utilization of coenzyme (absorbance at 340 nm); conditions: for A340nm: 37° C., one unit of enzyme, 12-hydroxydodecanoic acid; for Utilization of coenzyme: statement in words
Protocol: One unit of enzyme is added to the reaction mixture (2.0 ml) hereinabove and the absorbance at 340 nm and 37° C. is continuously measured.

Molecule: C[C@H](CCC(=O)O)[C@H]1CC[C@H]2[C@@H]3CC[C@@H]4C[C@H](O)CC[C@]4(C)[C@H]3C[C@H](O)[C@]12C [Deoxycholate]
Relative Activity (%) (ω-carboxyalcohol oxidase [1]; reagent 10 mM): 94.9%

Relative Activity (%) (ω-carboxyalcohol oxidase [2]): 59.1%
Molecule: CCCCCCCCC=CCCCCCCCCO [H3 C--(CH2)7 --CH=CH--(CH2)8 --OH]

Relative Activity (%) (ω-carboxyalcohol oxidase [2]): 6.6%
Molecule: CCCO [H3 C--(CH2)2 --OH]

Molecule: Triton X-100
Relative Activity (%) (ω-carboxyalcohol oxidase [1]; reagent 1.0%): 93.1%

Molecule: [Cl-].[Cl-].[Mg+2] [MgCl2]
Relative Activity (%) (ω-carboxyalcohol oxidase [1]; reagent 1 mM): 98.2%

Molecule: O=C(O)CCCCCCCCCCCCCCCO [HO2 C--(CH2)15 --OH, 16-hydroxy hexadecanoic acid]
Relative Activity (%) (ω-carboxyalcohol oxidase [2]): 65.5%

Substrate specificity (ω-carboxyalcohol oxidase [2]): has substrate specificity | Relative Activity (%) (ω-carboxyalcohol oxidase [2]): 87.6%
Molecule: CCCCCCCCCCO [H3 C--(CH2)9 --OH]

Molecule: [Cl][Mn][Cl] [MnCl2]
Relative Activity (%) (ω-carboxyalcohol oxidase [1]; reagent 1 mM): 102.4%

Substrate specificity (ω-carboxyalcohol oxidase [2]): no specificity | Relative Activity (%) (ω-carboxyalcohol oxidase [2]): 0%
Molecule: CCO [H3 C--CH2 --OH, ethanol]

Molecule: C[C@H](CCC(=O)O)[C@H]1CC[C@H]2[C@@H]3[C@H](O)C[C@@H]4C[C@H](O)CC[C@]4(C)[C@H]3C[C@H](O)[C@]12C [Cholate]
Relative Activity (%) (ω-carboxyalcohol oxidase [1]; reagent 10 mM): 94.9%

Substrate specificity (ω-carboxyalcohol oxidase [2]): has substrate specificity | Relative Activity (%) (ω-carboxyalcohol oxidase [2]): 86.1%
Molecule: CCCCCCCCCCCCO [H3 C--(CH2)11 --OH]

Substrate specificity (ω-carboxyalcohol oxidase [2]): no specificity | Relative Activity (%) (ω-carboxyalcohol oxidase [2]): 0%
Molecule: OCC(O)CO [glycerol]

A340nm (ω-carboxyalcohol oxidase [3]; 0 min.): 0.062 | A340nm (ω-carboxyalcohol oxidase [3]; 2 mins.): 0.061 | A340nm (ω-carboxyalcohol oxidase [3]; 4 mins.): 0.060 | A340nm (ω-carboxyalcohol oxidase [3]; 6 mins.): 0.062 | A340nm (ω-carboxyalcohol oxidase [3]; 8 mins.): 0.061 | A340nm (ω-carboxyalcohol oxidase [3]; 10 mins.): 0.061 | Utilization of coenzyme (ω-carboxyalcohol oxidase [3]): No utilization
Molecule: NC(=O)c1ccc[n+]([C@@H]2O[C@H](COP(=O)([O-])OP(=O)(O)OC[C@H]3O[C@@H](n4cnc5c(N)ncnc54)[C@H](O)[C@@H]3O)[C@@H](O)[C@H]2O)c1 [NAD]

Molecule: [Cl-].[Na+] [NaCl]
Relative Activity (%) (ω-carboxyalcohol oxidase [1]; reagent 100 mM): 95.1%

Molecule: [Cl-].[K+] [KCl]
Relative Activity (%) (ω-carboxyalcohol oxidase [1]; reagent 100 mM): 97.6%

Relative Activity (%) (ω-carboxyalcohol oxidase [1]; reagent 1 mM): 97.0%
Molecule: [Ca+2].[Cl-].[Cl-] [CaCl]

Molecule: CO [H3 C--OH, methanol]
Substrate specificity (ω-carboxyalcohol oxidase [2]): no specificity | Relative Activity (%) (ω-carboxyalcohol oxidase [2]): 0%

Relative Activity (%) (ω-carboxyalcohol oxidase [2]): 76.1%
Molecule: CCCCO [H3 C--(CH2)3 --OH]

Substrate specificity (ω-carboxyalcohol oxidase [2]): has substrate specificity | Relative Activity (%) (ω-carboxyalcohol oxidase [2]): 88.5%
Molecule: CCCCCCCCO [H3 C--(CH2)7 --OH]

Molecule: CCCCCCCCCCCCCCO [H3 C--(CH2)13 --OH]
Relative Activity (%) (ω-carboxyalcohol oxidase [2]): 76.1%

A340nm (ω-carboxyalcohol oxidase [3]; 0 min.): 0.046 | A340nm (ω-carboxyalcohol oxidase [3]; 2 mins.): 0.047 | A340nm (ω-carboxyalcohol oxidase [3]; 4 mins.): 0.045 | A340nm (ω-carboxyalcohol oxidase [3]; 6 mins.): 0.046 | A340nm (ω-carboxyalcohol oxidase [3]; 8 mins.): 0.046 | A340nm (ω-carboxyalcohol oxidase [3]; 10 mins.): 0.047 | Utilization of coenzyme (ω-carboxyalcohol oxidase [3]): No utilization
Molecule: NC(=O)c1ccc[n+]([C@@H]2O[C@H](COP(=O)([O-])OP(=O)(O)OC[C@H]3O[C@@H](n4cnc5c(N)ncnc54)[C@H](OP(=O)(O)O)[C@@H]3O)[C@@H](O)[C@H]2O)c1 [NADP]

Molecule: O=C(O)CCCCCCCCCCCO [HO2 C--(CH2)11 --OH, 12-hydroxydodecanoic acid]
Substrate specificity (ω-carboxyalcohol oxidase [2]): has substrate specificity | Relative Activity (%) (ω-carboxyalcohol oxidase [2]): 100%

Relative Activity (%) (ω-carboxyalcohol oxidase [2]): 60.2%
Molecule: CCCCCCCCCCCCCCCCO [H3 C--(CH2)15 --OH]

Substrate specificity (ω-carboxyalcohol oxidase [2]): has substrate specificity | Relative Activity (%) (ω-carboxyalcohol oxidase [2]): 88.5%
Molecule: CCCCCCO [H3 C--(CH2)5 --OH]

Relative Activity (%) (ω-carboxyalcohol oxidase [1]; reagent 100 mM): 89.0%
Molecule: Cl.N [NH4 Cl]
